Experimental data from patent US20100280098A1, “RECEPTOR TARGETED OLIGONUCLEOTIDES” (priority 2007, published 2010).
Entries after “also recorded” stand apart in the source; their conditions may differ.

What was measured:
A375SM-Luc705-B cells [1] = test: Total cellular uptake of Tamra-labeled oligonucleotides (microfluorimeter); type: cell-based; conditions: for cell viability: 1-10 mM β-cyclodextrin, 0.2-20 μM cytochalasin D; for effect on uptake of the RGD-oligonucleotide conjugate: inhibitor 15 min before 100 nM RGD-623-Tamra, uptake after 4 h
From the text: (§1) Cell Uptake, Confocal Fluorescence Microscopy, and Flow Cytometry: Total cellular uptake of Tamra-labeled oligonucleotides was monitored using a Nanodrop microfluorimeter (Nanodrop Technologies, Wilmington, Del., United States of America). After treatment with oligonucleotides the cells were lysed in a mild non-ionic detergent buffer and the Tamra fluorescence (emission 583 nm) was quantitated based on a linear standard curve of unconjugated Tamra in buffer. Intracellular distribution of Tamra-labeled oligonucleotides was examined using an Olympus Confocal FV300 fluorescent microscope (Olympus America Inc., Center Valley, Pa., United States of America) with 60X-oil immersion objective, as previously described. See Astriab-Fisher et al. (2004) Biochem. Pharmacol., 68, 403-407. Expression levels of αvβ3 were monitored by immunostaining with an anti-human-αvβ3 monoclonal (Chemicon, Temecula, Calif., United States of America) followed by an Alexa 488 rabbit antimouse secondary antibody, with analysis by flow cytometry using a DakoCytomation (Glostrop, Denmark) machine.

A375SM-Luc705-B cells [2] = test: Total cellular accumulation of albumin conjugates (fluorimeter); type: cell-based; conditions: nontoxic concentrations, 30 min prior to 100 nM conjugate, 4 h
Procedure: Cellular Uptake and Confocal Microscopy: Cells were seeded onto either 12 well plates at 1×10^5 cells per well for cellular uptake measurements or in 12 well glass-bottom plates at 2×10^4 cells per well for live cell analysis by confocal microscopy. […], the cells were either lysed for measurement of Tamra fluorescence using a Nanodrop microfluorimeter (Nanodrop Technologies, Wilmington, Deleware, United States of America) or washed with DMEM containing 10% FBS and then placed in DMEM without phenol red, supplemented with 1% FBS, for confocal microscopy analysis. Co-localization of Tamra-labeled oligonucleotides with Alexa 488 labeled Transferrin or Dextran (Molecular Probes, Beaverton, Oreg., United States of America) in live cell was also examined by confocal microscopy. An Olympus confocal microscope with a 60× objective lens was used, and the data were processed using Fluoview software (Olympus, Center Valley, Pa., United States of America) as described in Example 1.

A375SM-Luc705-B cells [3] = test: Luciferase splice-correction assay with peptide-oligonucleotide conjugates; type: cell-based; conditions: for luciferase expression: dose-response and mismatch control studies, luciferase after 48 h
Procedure: Cell Lines and Plasmids: A375SM melanoma cells were obtained from Dr. J. Bear (University of North Carolina, Chapel Hill, N.C., United States of America), and were cultured in Dulbecco's minimum essential medium (DMEM; Invitrogen, Carlsbad, Calif., United States of America) supplemented with L-glutamine and 10% fetal bovine serum (FBS). Plasmid pLuc/705, containing an aberrant intron inserted into the firefly luciferase coding sequence, was obtained from Dr. R. Kole (University of North Carolina, Chapel Hill, N.C., United States of America). See Kang et al. (1998) Biochemistry, 37, 6235-6239. Stable transfectants were obtained by cotransfecting A375SM cells with one part of hygromycin resistant plasmid pcDNA3.1(+)/hygro (Invitrogen, Carlsbad, Calif., United States of America) and ten parts of pLuc/705 using LIPOFECTAMINE™ 2000 (Invitrogen, Carlsbad, Calif., United States of America) as per manufacturer's instructions. Selection was carried out in DMEM containing 200 μg/mL hygromycin and 10% FBS. The resulting pool of hygromycin resistant cells was referred to as A375SM-Luc705-B.
Oligonucleotide treatment and luciferase assay: A375SM-Luc705-B cells were plated on 12 well plates (at 1.0 or 1.5×10^5 cells per well in various experiments) in DMEM supplemented with 10% FBS. The following day, medium was changed to reduced serum OPTI-MEM I (Invitrogen, Carlsbad, Calif., United States of America). […] Four hours after treatment, 1% FBS was added to each well. Twenty four hours after oligonucleotide treatment, medium was replaced with DMEM containing 1% FBS, and at various times thereafter cell lysates were collected for luciferase assay.
Cells were usually harvested 48 hours after oligonucleotide treatment, or at times indicated in the figures, and activity determined using a Luciferase assay kit (Promega, Madison, Wis., United States of America). Measurements were performed on a Monolight 2010 instrument (Analytical Luminescence Laboratory, San Diego, Calif., United States of America).

A375SM-Luc705-B cells [4] = test: Luciferase splice-correction assay with albumin conjugates; type: cell-based
Procedure: Oligonucleotide Treatment of Cells and Luciferase Assay: A375SM-Luc705-B cells were seeded onto 12 well plates at 1×10^5 cells per well in medium containing 10% FBS. […] After 4 h of treatment, FBS was added to each well to 1%. After 24 h, cells were washed with DMEM medium containing 10% FBS and incubated in DMEM supplemented with 1% FBS for 48 h prior to harvest.

A375SM-Luc705-B cells [5] = test: Subcellular distribution and co-localization by confocal fluorescence microscopy (peptide conjugate); type: cell-based; conditions: for co-localization with dextran / co-localization with transferrin: 2 h; for co-localization with dextran / co-localization with transferrin / co-localization with transferrin or dextran markers: live cells, 100 nM; for co-localization with transferrin or dextran markers: 24 h
From the text: as §1

[6] = tested on: αvβ3-positive M21+ human melanoma cells; test: Total cellular uptake in αvβ3-positive cells; type: cell-based; conditions: 12.5-100 nM
From the text: (§2) Results represent means and standard errors of triplicate determinations and are expressed as RFUs per microgram cell protein.
as §1

[7] = Re-dissolution of lyophilized conjugate in sterile water; type: physicochemical; conditions: after dialysis and lyophilization
From the text: The peptide conjugation reaction occurred between the maleimide of the bicyclic RGD peptide and the 5′ thiol (—SH) of the oligonucleotide (2). The reaction proceeded efficiently and more than 95% of the starting oligonucleotide (2) was converted into conjugates with bicyclic RGD. The conjugates were purified by ion-exchange chromatography (Resource™ Q column, GE Healthcare, Chalfont St. Giles, United Kingdom) under highly denaturing conditions to avoid any sort of precipitation, although this was not expected to be a problem for this type of peptide. […] Similar approaches were used for the preparation of other oligonucleotides and conjugates. In each case the structure of the final product was confirmed by MALDI-TOF mass spectroscopy.

A375SM-Luc705-B cells [8] = test: Short-term toxicity, viable cell count after 48 h (peptide conjugate); type: cell-based
Procedure: Toxicity Studies: Cells were treated with various concentrations of oligonucleotides or conjugates under the same conditions as used for the luciferase induction experiments. After 48 h in medium plus 1% FBS, cells were trypsinized and viable cells were counted in an electronic particle counter.

[9] = tested on: αvβ3-negative M21− human melanoma cells; test: Total cellular uptake in αvβ3-negative cells; type: cell-based; conditions: 12.5-100 nM
From the text: as §2, §1

αvβ3 = test: Cell surface αvβ3 level by immunostaining and flow cytometry; type: cell-based, human; conditions: 200 nM, 24 h exposure
Procedure: Then, αvβ3 levels were determined by immunostaining with anti-αvβ3 antibody. […] The y axis of each panel indicates the number of cells, while the x axis indicates the log of fluorescence intensity.
as §1

[10] = listed as RGD-623-Tamra conjugate

## C=C1[C@@H](C)[C@H]2[C@H](Cc3ccccc3)NC(=O)[C@]23[C@H](OC(C)=O)/C=C/[C@@](C)(O)C(=O)[C@@H](C)C/C=C/[C@H]3[C@@H]1O [cytochalasin D]
A375SM-Luc705-B cells [1]
  cell viability: No loss of cell viability was detected
  effect on uptake of the RGD-oligonucleotide conjugate: block the uptake
A375SM-Luc705-B cells [1]; highest concentration
  cell morphology: caused some cell rounding
A375SM-Luc705-B cells [2]
  effect on cellular accumulation of RPA-623-Tamra: inhibited

## 5′-GTAATTATTTATAATCGTCC-Tamra-3′ [5MM623-Tamra]
A375SM-Luc705-B cells [3]
  luciferase expression: failed to produce an increase in luciferase expression

## Bivalent-RGD-Mal-S—(CH2)6-5MM623-Tamra
A375SM-Luc705-B cells [3]
  luciferase expression: failed to produce an increase in luciferase expression

## OC[C@H]1O[C@@H]2O[C@H]3[C@H](O)[C@@H](O)[C@@H](O[C@H]4[C@H](O)[C@@H](O)[C@@H](O[C@H]5[C@H](O)[C@@H](O)[C@@H](O[C@H]6[C@H](O)[C@@H](O)[C@@H](O[C@H]7[C@H](O)[C@@H](O)[C@@H](O[C@H]8[C@H](O)[C@@H](O)[C@@H](O[C@H]1[C@H](O)[C@H]2O)O[C@@H]8CO)O[C@@H]7CO)O[C@@H]6CO)O[C@@H]5CO)O[C@@H]4CO)O[C@@H]3CO [β-cyclodextrin]
A375SM-Luc705-B cells [1]
  cell viability: No loss of cell viability was detected
  effect on uptake of the RGD-oligonucleotide conjugate: block the uptake
A375SM-Luc705-B cells [2]
  effect on cellular accumulation of RPA-623-Tamra: inhibited

## CC(C)[C@@H]1NC(=O)[C@@H](Cc2ccccc2)NC(=O)[C@H](CC(=O)O)NC(=O)CNC(=O)[C@H](CCCN=C(N)N)NC1=O [RGDfV]
A375SM-Luc705-B cells [4]; at the concentrations used
  toxicity of the blocking peptide: does not cause cell detachment or other obvious toxicity
A375SM-Luc705-B cells [4]; excess peptide (0.1-10 μM) 30 min prior to 100 nM conjugate, 48 h
  effect on the ability of the RPA-623 conjugate to activate luciferase: completely blocks
A375SM-Luc705-B cells [1]; excess peptide
  effect of co-incubation on the increased uptake of the RGD-conjugate: could be blocked
A375SM-Luc705-B cells [2]
  effect on cellular accumulation of RPA-623-Tamra: inhibited
A375SM-Luc705-B cells [5]; data not shown
  effect of co-incubation on cell associated fluorescence of RGD-623-Tamra conjugate: substantially reduced total cell associated fluorescence
A375SM-Luc705-B cells [3]; 0.1-100 μM peptide 30 min prior to 200 nM conjugate, 48 h
  inhibition of the effect of RGD-623-Tamra on luciferase expression: progressive inhibition

## 5′-GTTATTCTTTAGAATGGTGC-3′ (antisense GTTATTCTTTAGAATGGTGC; all 2'-O-methyl, all phosphorothioate, T or U not given here; further chemistry not fully specified) [compound 623]
A375SM-Luc705-B cells [4]; 25-200 nM, 72 h
  luciferase activity: did not cause a significant increase in luciferase activity
A375SM-Luc705-B cells [3]; RGD conjugate or lipofection, concentrations up to 75 nM
  influence of the Tamra fluorophore on the action of 623: did not affect the action of 623
A375SM-Luc705-B cells [3]; concentrations above 100 nM
  influence of the Tamra fluorophore on the action of 623: slight augmentation of effect by Tamra

## BivalentRGD-Mal-S—(CH2)6-623-Tamra [RGD-623-Tamra]
[6]
  uptake by M21+ cells as compared to M21− cells: about 3 times
[7]
  re-dissolution in sterile water: re-dissolved in sterile water without any difficulty
A375SM-Luc705-B cells [8]; concentration range needed for splice correction
  tolerability by cells: well-tolerated by cells
A375SM-Luc705-B cells [8]; concentrations up to 1000 nM, 48 h
  short-term toxicity (viable cells): little effect
A375SM-Luc705-B cells [8]; higher concentrations
  cell loss: did not result in significant cell loss
  cell rounding: Some cell rounding was observed
A375SM-Luc705-B cells [1]; 12.5, 50 or 100 nM, 4 h
  total cellular uptake compared to unconjugated oligonucleotide: ~2 fold
[9]
  uptake in M21− cells as compared to 623-Tamra control: slightly greater uptake
αvβ3
  level of surface αvβ3 expression: no effect
αvβ3; listed as RGD-623 conjugate
  level of surface αvβ3 expression: lack of down-regulation of αvβ3
A375SM-Luc705-B cells [5]
  co-localization with dextran: Substantial overlap
  co-localization with transferrin: no overlap
  co-localization with transferrin or dextran markers: Substantial overlap
A375SM-Luc705-B cells [5]; [10]
  co-localization with dextran: significant co-localization
  co-localization with transferrin: no co-localization
  co-localization with transferrin or dextran markers: substantial co-localization
A375SM-Luc705-B cells [5]; between 2 and 6 h, fixed permeabilized cells, 50 nM
  co-localization with caveolin-1: significant co-localization
A375SM-Luc705-B cells [5]; early (6 h), fixed cells, 50 nM
  co-localization with αvβ3: Early co-localization
A375SM-Luc705-B cells [5]; fixed cells
  co-localization with other markers (EAA1, LAMP1, clathrin): No significant co-localization
A375SM-Luc705-B cells [5]; late (24 h), fixed cells, 50 nM
  co-localization with trans-Golgi marker TG230: some co-loacalization
A375SM-Luc705-B cells [5]; living cells, 200 nM, complex 100 nM
  cellular uptake seen by confocal microscopy: substantial cellular uptake was observed
A375SM-Luc705-B cells [5]; living cells, 200 nM, complex 100 nM, listed as RGD-623-Tamra conjugate
  nuclear fluorescence: no readily observable nuclear fluorescence; also recorded: generally free of fluorescence
A375SM-Luc705-B cells [3]
  concentration dependence of the luciferase effect: rises rapidly between zero and 100 nM and then begins to plateau
  luciferase expression: produced a significant increase in luciferase expression
A375SM-Luc705-B cells [3]; 200 nM, 48 h after removal of the oligonucleotide
  time of maximum effect on luciferase expression: 72 h
A375SM-Luc705-B cells [3]; 24-120 h, conjugate 200 nM, complex 100 nM
  time course of the effect on luciferase expression: rose gradually with time
A375SM-Luc705-B cells [3]; 48 h
  concentration at which substantial effects on luciferase were observed: 50 nM
  low concentration at which significant effects were still observed: 5 nM
A375SM-Luc705-B cells [3]; higher concentrations of RGD-623, complex at 100 nM oligonucleotide
  effect on luciferase relative to 623/cationic lipid complex: approximately 50%
